Results: US20110201818A1, “POLO-LIKE KINASE INHIBITORS” (TAKEDA PHARMACEUTICAL COMPANY LIMITED, priority 2007, published 2011)

Tests used:
human PLK1 = target: T1, human PLK1 (Homo sapiens, UniProt P53350); assay: PLK1 in vitro enzymatic activity assay (phosphorylation of alpha casein by recombinant PLK1); assay type: biochemical; conditions: recombinant FLAG-tagged PLK1, alpha casein substrate, 500 nmol/L ATP, 40 min at room temperature; read-out: pIC50 (PLK1) (converted)
T1 construct: FLAG (DYKDDDDK) (N); made in house; host or cells: Sf21 insect cells, recombinant baculovirus (pFASTBAC1, Bac-to-Bac)
T1 sequence (P53350 with tags, fused parts or gaps): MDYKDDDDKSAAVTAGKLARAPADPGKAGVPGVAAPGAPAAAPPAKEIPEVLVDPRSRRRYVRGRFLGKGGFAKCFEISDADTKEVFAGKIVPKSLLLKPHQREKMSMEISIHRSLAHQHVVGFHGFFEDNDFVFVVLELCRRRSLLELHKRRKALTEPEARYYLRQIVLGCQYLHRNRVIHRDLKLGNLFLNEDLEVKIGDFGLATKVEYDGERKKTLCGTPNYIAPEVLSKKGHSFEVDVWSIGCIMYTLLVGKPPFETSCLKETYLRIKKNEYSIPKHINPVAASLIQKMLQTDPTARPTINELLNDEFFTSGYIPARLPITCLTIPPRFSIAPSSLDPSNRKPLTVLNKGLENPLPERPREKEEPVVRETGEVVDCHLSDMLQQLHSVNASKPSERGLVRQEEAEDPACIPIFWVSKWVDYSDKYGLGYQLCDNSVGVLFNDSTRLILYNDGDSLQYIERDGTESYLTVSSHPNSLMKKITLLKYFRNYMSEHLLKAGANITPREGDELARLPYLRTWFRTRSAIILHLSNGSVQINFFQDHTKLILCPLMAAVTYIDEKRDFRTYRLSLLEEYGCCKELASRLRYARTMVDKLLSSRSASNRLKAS
Method in brief: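 Recombinant PLK1 from baculovirus-infected Sf21 cells (50 ng) phosphorylated 3 μg alpha casein for 40 min at room temperature in HEPES pH 7.5, Mg acetate, DTT buffer with 500 nmol/L ATP plus [γ-32P]ATP. TCA-precipitated phosphoprotein was filter-captured, washed, and counted by scintillation.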

Structure (SMILES) | IC50 (human PLK1) [nM] | melting point [°C]
COc1cc(C(=O)NC2CCC(N(C)C)CC2)ccc1Nc1ncc2c(n1)N(C1CCCCC1)CC(F)(F)C(=O)N2C (centres unmarked) [Compound 49, 4-(9-cyclohexyl-7,7-difluoro-5-methyl-6-oxo-6,7,8,9-tetrahydro-5H-pyrimido[4,5-b][1,4]diazepin-2-ylamino)-N-(4-(dimethylamino)cyclohexyl)-3-methoxybenzamide] | ≤ 2 | 208 to 214
COc1cc(C(=O)NC2CCN(CC(F)(F)F)CC2)ccc1Nc1ncc2c(n1)N(C1CCCCC1)CC(F)(F)C(=O)N2C [Compound 50, 4-(9-cyclohexyl-7,7-difluoro-5-methyl-6-oxo-6,7,8,9-tetrahydro-5H-pyrimido[4,5-b][1,4]diazepin-2-ylamino)-3-methoxy-N-(1-(2,2,2-trifluoroethyl)piperidin-4-yl)benzamide] | ≤ 2 | 213 to 215
COc1cc(C(=O)NN2CCN(C)CC2)ccc1Nc1ncc2c(n1)N(C1CCCC1)CC(F)(F)C(=O)N2C [Compound 6, 4-(9-cyclopentyl-7,7-difluoro-5-methyl-6-oxo-6,7,8,9-tetrahydro-5H-pyrimido[4,5-b][1,4]diazepin-2-ylamino)-3-methoxy-N-(4-methylpiperazin-1-yl)benzamide] |  | 168 to 174
COc1cc(C(=O)NC2CN(C)C2)ccc1Nc1ncc2c(n1)N(C1CCCC1)CC(F)(F)C(=O)N2C [Compound 4, 4-(9-Cyclopentyl-7,7-difluoro-5-methyl-6-oxo-6,7,8,9-tetrahydro-5H-pyrimido[4,5-b][1,4]diazepin-2-ylamino)-3-methoxy-N-(1-methylazetidin-3-yl)benzamide] | ≤ 2 | 157 to 162
COc1cc(C(=O)NN2CCN(C3CCCC3)CC2)ccc1Nc1ncc2c(n1)N(C1CCCCC1)CC(F)(F)C(=O)N2C [Compound 52, 4-(9-cyclohexyl-7,7-difluoro-5-methyl-6-oxo-6,7,8,9-tetrahydro-5H-pyrimido[4,5-b][1,4]diazepin-2-ylamino)-N-(4-cyclopentylpiperazin-1-yl)-3-methoxybenzamide] | > 2 | 98 to 99
COc1cc(C(=O)NC2CCN(C(=O)CN(C)C)CC2)ccc1Nc1ncc2c(n1)N(C1CCCCC1)CC(F)(F)C(=O)N2C [Compound 71, 4-(9-cyclohexyl-7,7-difluoro-5-methyl-6-oxo-6,7,8,9-tetrahydro-5H-pyrimido[4,5-b][1,4]diazepin-2-ylamino)-N-(1-(2-(dimethylamino)acetyl)piperidin-4-yl)-3-methoxybenzamide] | ≤ 2 | 190 to 191
COc1cc(C(N)=O)ccc1Nc1ncc2c(n1)N(C1CCCCC1)CC(F)(F)C(=O)N2C [Compound 58, 4-(9-cyclohexyl-7,7-difluoro-5-methyl-6-oxo-6,7,8,9-tetrahydro-5H-pyrimido[4,5-b][1,4]diazepin-2-ylamino)-3-methoxybenzamide] | ≤ 2 | 

More lines, now with the values ahead:

IC50 (human PLK1) [nM] | melting point [°C] | Structure (SMILES)
> 2 | 98 to 99 | COc1cc(C(=O)N[C@@H]2CCN(C)C2)ccc1Nc1ncc2c(n1)N(C1CCCCC1)CC(F)(F)C(=O)N2C [Compound 39, (R)-4-(9-cyclohexyl-7,7-difluoro-5-methyl-6-oxo-6,7,8,9-tetrahydro-5H-pyrimido[4,5-b][1,4]diazepin-2-ylamino)-3-methoxy-N-(1-methylpyrrolidin-3-yl)benzamide]
≤ 2 | 258 to 263 | COc1cc(C(=O)N[C@H]2CCNC2)ccc1Nc1ncc2c(n1)N(C1CCCCC1)CC(F)(F)C(=O)N2C [Compound 72, (S)-4-(9-cyclohexyl-7,7-difluoro-5-methyl-6-oxo-6,7,8,9-tetrahydro-5H-pyrimido[4,5-b][1,4]diazepin-2-ylamino)-3-methoxy-N-(pyrrolidin-3-yl)benzamide]
≤ 2 | 195 to 198 | COc1cc(C(=O)N[C@@H]2CCNC2)ccc1Nc1ncc2c(n1)N(C1CCCCC1)CC(F)(F)C(=O)N2C [Compound 73, (R)-4-(9-cyclohexyl-7,7-difluoro-5-methyl-6-oxo-6,7,8,9-tetrahydro-5H-pyrimido[4,5-b][1,4]diazepin-2-ylamino)-3-methoxy-N-(pyrrolidin-3-yl)benzamide]
≤ 2 | 169 to 172 | C=CC1(F)CN(C2CCCC2)c2nc(Nc3ccc(C(=O)N[C@@H]4CCCNC4)cc3OC)ncc2N(C)C1=O (stereo partly drawn) [Compound 102, 4-(9-cyclopentyl-7-fluoro-5-methyl-6-oxo-7-vinyl-6,7,8,9-tetrahydro-5H-pyrimido[4,5-b][1,4]diazepin-2-ylamino)-3-methoxy-N—((R)-piperidin-3-yl)benzamide]
